Experimental findings from patent US9834550B2, “Pyridopyrimidinone compounds for modulating the catalytic activity of histone lysine demethylases (KDMs)” (Dong-A Socio Holdings Co., Ltd., priority 2014, dated 2017) are described below.

The target in the assay is T1, Recombinant human JARID1B/KDM5B (Homo sapiens, UniProt Q9UGL1).
T1 construct: purchased Active Motif 31432; host or cells: Sf9 insect cells
The assay can be described thus: LANCE Ultra TR-FRET demethylase assay with FLAG-tagged JARID1B. The note with it: 100 nM compound; 500 nM biotinylated H3K4me3 peptide substrate. The assay is classed as biochemical. The method in brief: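 Sf9-expressed N-FLAG full-length JARID1B (10–30 nM) preincubated 5 min with compound at 20, 1 or 0.1 uM (1% DMSO), then 500 nM biotin-H3K4me3 peptide, 500 uM 2-OG, 25 uM Fe(II), 2 mM ascorbate added; 30 min at room temperature in Hepes pH 7.5. H3K4me2/1 product read by TR-FRET 665/590 ratio.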

Where only a bound is given, the exact number is not on record here.

T1 sequence (Q9UGL1 whole entry): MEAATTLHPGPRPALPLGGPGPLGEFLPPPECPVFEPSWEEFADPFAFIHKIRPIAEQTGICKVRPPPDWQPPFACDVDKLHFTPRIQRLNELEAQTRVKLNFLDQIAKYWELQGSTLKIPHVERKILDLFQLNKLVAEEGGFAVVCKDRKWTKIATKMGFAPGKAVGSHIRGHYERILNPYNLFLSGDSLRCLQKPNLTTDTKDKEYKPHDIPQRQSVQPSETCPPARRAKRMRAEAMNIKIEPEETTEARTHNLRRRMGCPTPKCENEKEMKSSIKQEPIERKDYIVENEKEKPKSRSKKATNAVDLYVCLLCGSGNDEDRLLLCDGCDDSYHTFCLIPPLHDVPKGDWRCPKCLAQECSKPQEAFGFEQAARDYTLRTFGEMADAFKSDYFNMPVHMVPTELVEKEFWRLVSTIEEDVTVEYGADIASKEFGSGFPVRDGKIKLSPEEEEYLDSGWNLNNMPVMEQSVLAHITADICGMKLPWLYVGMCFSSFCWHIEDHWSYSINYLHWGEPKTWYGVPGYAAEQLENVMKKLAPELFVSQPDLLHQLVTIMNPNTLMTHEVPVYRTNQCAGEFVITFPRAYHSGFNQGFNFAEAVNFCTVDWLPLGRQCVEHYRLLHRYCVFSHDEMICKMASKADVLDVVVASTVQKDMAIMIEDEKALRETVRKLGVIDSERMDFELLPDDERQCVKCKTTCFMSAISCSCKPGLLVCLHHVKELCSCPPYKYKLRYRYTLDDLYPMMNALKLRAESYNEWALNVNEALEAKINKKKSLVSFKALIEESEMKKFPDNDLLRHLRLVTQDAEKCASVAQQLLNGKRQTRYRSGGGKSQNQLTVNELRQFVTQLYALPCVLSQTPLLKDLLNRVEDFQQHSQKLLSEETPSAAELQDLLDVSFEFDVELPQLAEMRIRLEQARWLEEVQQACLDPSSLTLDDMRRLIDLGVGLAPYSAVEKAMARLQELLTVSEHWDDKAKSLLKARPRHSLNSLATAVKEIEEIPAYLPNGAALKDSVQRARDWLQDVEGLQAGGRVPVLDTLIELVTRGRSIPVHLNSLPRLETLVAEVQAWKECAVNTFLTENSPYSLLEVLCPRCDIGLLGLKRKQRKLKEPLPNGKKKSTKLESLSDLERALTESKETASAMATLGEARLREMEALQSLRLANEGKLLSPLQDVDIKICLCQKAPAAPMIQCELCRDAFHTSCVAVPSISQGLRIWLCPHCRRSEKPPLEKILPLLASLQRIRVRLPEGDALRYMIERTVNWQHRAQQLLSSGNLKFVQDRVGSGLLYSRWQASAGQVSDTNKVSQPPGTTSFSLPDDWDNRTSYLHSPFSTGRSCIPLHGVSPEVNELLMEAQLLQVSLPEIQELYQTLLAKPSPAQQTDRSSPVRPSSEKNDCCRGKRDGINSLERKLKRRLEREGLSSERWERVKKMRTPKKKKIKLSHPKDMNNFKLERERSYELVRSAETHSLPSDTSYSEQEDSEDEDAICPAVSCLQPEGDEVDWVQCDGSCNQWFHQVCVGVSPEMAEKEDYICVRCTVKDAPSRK

In general, inhibition refers to the drop in the measured response relative to a control, in per cent. For `O=c1[nH]c(COc2ccc(F)c(Cl)c2)nc2c(CNCc3ncco3)nccc12` [Example 179, 2-((3-chloro-4-fluorophenoxy)methyl)-8-(((oxazol-2-ylmethyl)amino)methyl)pyrido[3,4-d]pyrimidin-4(3H)-one], the inhibition at 0.1 µM lay in the range of 20 to 50%. Then `O=c1[nH]c(COc2ccc(F)c(Cl)c2)nc2c(CNCc3ncccn3)nccc12` [Example 180, 2-((3-chloro-4-fluorophenoxy)methyl)-8-(((pyrimidin-2-ylmethyl)amino)methyl)pyrido[3,4-d]pyrimidin-4(3H)-one], with 20 to 50%. The result for `O=c1[nH]c(COc2ccc(F)c(Cl)c2)nc2c(CNCc3cccs3)nccc12` [Example 181, 2-((3-chloro-4-fluorophenoxy)methyl)-8-(((thiophen-2-ylmethyl)amino)methyl)pyrido[3,4-d]pyrimidin-4(3H)-one] reads 20 to 50%; that for `O=c1[nH]c(COc2ccc(F)c(Cl)c2)nc2c(CNCc3ccnc(Cl)c3)nccc12` [Example 182, 2-((3-chloro-4-fluorophenoxy)methyl)-8-((((2-chloropyridin-4-yl)methyl)amino)methyl)pyrido[3,4-d]pyrimidin-4(3H)-one], 20 to 50%; that for `Cc1cc(C)n(CCNCc2nccc3c(=O)[nH]c(COc4ccc(F)c(Cl)c4)nc23)n1` [Example 183, 2-((3-chloro-4-fluorophenoxy)methyl)-8-(((2-(3,5-dimethyl-1H-pyrazol-1-yl)ethyl)amino)methyl)pyrido[3,4-d]pyrimidin-4(3H)-one], under 20%. Then `Cc1cccc(CCNCc2nccc3c(=O)[nH]c(COc4ccc(F)c(Cl)c4)nc23)n1` [Example 184, 2-((3-chloro-4-fluorophenoxy)methyl)-8-(((2-(6-methylpyridin-2-yl)ethyl)amino)methyl)pyrido[3,4-d]pyrimidin-4(3H)-one], with under 20%; and `O=C1c2cccnc2CN1CCCNCc1nccc2c(=O)[nH]c(COc3ccc(F)c(Cl)c3)nc12` [Example 185, 2-((3-chloro-4-fluorophenoxy)methyl)-8-(((3-(5-oxo-5,7-dihydro-6H-pyrrolo[3,4-b]pyridin-6-yl)propyl)amino)methyl)pyrido[3,4-d]pyrimidin-4(3H)-one], with 20 to 50%; and `O=c1[nH]c(COc2ccc(F)c(Cl)c2)nc2c(CNCCc3ccccn3)nccc12` [Example 186, 2-((3-chloro-4-fluorophenoxy)methyl)-8-(((2-(pyridin-2-yl)ethyl)amino)methyl)pyrido[3,4-d]pyrimidin-4(3H)-one], with 20 to 50%. Take `O=c1[nH]c(COc2ccc(F)c(Cl)c2)nc2c(CNC[C@@H]3CNCCO3)nccc12` [Example 187, (R)-2-((3-chloro-4-fluorophenoxy)methyl)-8-(((morpholin-2-ylmethyl)amino)methyl)pyrido[3,4-d]pyrimidin-4(3H)-one]: the inhibition at 0.1 µM is over 50%.

As for `O=c1[nH]c(COc2ccc(F)c(Cl)c2)nc2c(CNCC3CCN(CCO)CC3)nccc12` [Example 188, 2-((3-chloro-4-fluorophenoxy)methyl)-8-((((1-(2-hydroxyethyl)piperidin-4-yl)methyl)amino)methyl)pyrido[3,4-d]pyrimidin-4(3H)-one], the inhibition at 0.1 µM is over 50%. Then `COCCN1CCC(CNCc2nccc3c(=O)[nH]c(COc4ccc(F)c(Cl)c4)nc23)CC1` [Example 189, 2-((3-chloro-4-fluorophenoxy)methyl)-8-((((1-(2-methoxyethyl)piperidin-4-yl)methyl)amino)methyl)pyrido[3,4-d]pyrimidin-4(3H)-one], with over 50%.

As for `O=c1[nH]c(COc2ccc(F)c(Cl)c2)nc2c(CNC[C@H]3CNCCO3)nccc12` [Example 190, (S)-2-((3-chloro-4-fluorophenoxy)methyl)-8-(((morpholin-2-ylmethyl)amino)methyl)pyrido[3,4-d]pyrimidin-4(3H)-one], the inhibition at 0.1 µM was over 50%.
